Experimental data as given in US9265253B2, “Use of macrocyclic picolinamides as fungicides” (DOW AGROSCIENCES LLC, priority 2013, dated 2016).
Like-named read-outs stand apart in the source and are kept apart here.

Key:
[1] = tested on: Puccinia triticina; Synonym: Puccinia recondite f. Sp. Tritici; assay: Wheat Brown Rust (PUCCRT) disease control; assay type: in vivo; conditions: Puccinia triticina, topical; for pest or weed control at 100 ppm: rate 100 ppm; for pest or weed control at 121.5 g/ha: rate 121.5 g/H
Summary of the method: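 Brown rust on first-leaf Yuma wheat: spore inoculation before or after spray application (acetone/Triton X-100 solution, or EC with Trycol in track spray), overnight 100% RH at 22 °C, disease developed at 24 °C. Severity scored 0–100% and converted to percent control against untreated.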

[2] = tested on: Mycosphaerella graminicola; Anamorph: Septoria tritici; assay: Leaf Blotch of Wheat (SEPTTR) disease control; assay type: in vivo; conditions: Zymoseptoria tritici; for pest or weed control at 100 ppm: rate 100 ppm; for pest or weed control at 121.5 g/ha: rate 121.5 g/H
Summary of the method: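 Seedlings of variety Yuma grew until the first leaf fully emerged. Fungicide solution (acetone/water with Triton X-100) was sprayed to run-off; plants were inoculated with S. tritici spores before or after spraying, held one day dark and two to three days lit at 100% humidity, then kept at 20° C.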

[3] = 24 h, 1 Day Protectant, read-out: PUCCRT 1 DP disease control
[4] = 72 h, 3 Day Curative, read-out: PUCCRT 3 DC disease control
[5] = 24 h, 1 Day Protectant, read-out: SEPTTR 1 DP disease control
[6] = 72 h, 3 Day Curative, read-out: SEPTTR 3 DC disease control

Which pest or weed control at 100 ppm [1, 3] does the source give for `COc1ccnc(C(=O)N[C@H]2CCC[C@H](CCC(C)C)[C@@H](OCCCC(F)(F)F)[C@H](C)OC2=O)c1OCOC(=O)C(C)C` [Compound F150] here?
Its pest or weed control at 100 ppm is 80 to 100%.

And the pest or weed control at 121.5 g/ha [1, 3]?
The pest or weed control at 121.5 g/ha was 80 to 100%.

And the pest or weed control at 100 ppm [1, 4]?
The pest or weed control at 100 ppm was 80 to 100%.

What about the pest or weed control at 121.5 g/ha [1, 4] of the same compound?
Its pest or weed control at 121.5 g/ha is 0 to 80%.

And the pest or weed control at 100 ppm [2, 5]?
Its pest or weed control at 100 ppm is 80 to 100%.

And the pest or weed control at 121.5 g/ha [2, 5]?
Its pest or weed control at 121.5 g/ha is 80 to 100%.

And the pest or weed control at 100 ppm [2, 6]?
The pest or weed control at 100 ppm was 80 to 100%.

What about the pest or weed control at 121.5 g/ha [2, 6] of the same compound?
The pest or weed control at 121.5 g/ha was 80 to 100%.

Which results are given for `COCCC(=O)Oc1c(OC)ccnc1C(=O)N[C@H]1CCC[C@H](CC2CCCC2)[C@@H](Oc2ccccc2)[C@H](C)OC1=O` [Compound F153]?
pest or weed control at 100 ppm [1, 3]: 80 to 100%; pest or weed control at 121.5 g/ha [1, 3]: 80 to 100%; pest or weed control at 100 ppm [1, 4]: 80 to 100%; pest or weed control at 121.5 g/ha [1, 4]: 0 to 80%; pest or weed control at 100 ppm [2, 5]: 80 to 100%; pest or weed control at 121.5 g/ha [2, 5]: 80 to 100%; pest or weed control at 100 ppm [2, 6]: 80 to 100%; pest or weed control at 121.5 g/ha [2, 6]: 80 to 100%

How did the pest or weed control at 100 ppm [1, 3] turn out when `COc1ccnc(C(=O)N[C@H]2CCC[C@H](CC3CCCC3)[C@@H](OCC3CC3)[C@H](C)OC2=O)c1OCOC(=O)C(C)C` [Compound F154, ((2-(((3S,7R,8R,9S)-7-(cyclopentylmethyl)-8-(cyclopropylmethoxy)-9-methyl-2-oxooxonan-3-yl)carbamoyl)-4-methoxypyridin-3-yl)oxy)methyl isobutyrate] was run?
The pest or weed control at 100 ppm was 80 to 100%.

What about the pest or weed control at 121.5 g/ha [1, 3] of the same compound?
The pest or weed control at 121.5 g/ha was 80 to 100%.

And the pest or weed control at 100 ppm [1, 4]?
Its pest or weed control at 100 ppm is 80 to 100%.

And the pest or weed control at 121.5 g/ha [1, 4]?
The pest or weed control at 121.5 g/ha was 80 to 100%.

And the pest or weed control at 100 ppm [2, 5]?
Its pest or weed control at 100 ppm is 80 to 100%.

And the pest or weed control at 121.5 g/ha [2, 5]?
Its pest or weed control at 121.5 g/ha is 80 to 100%.

What about the pest or weed control at 100 ppm [2, 6] of the same compound?
The pest or weed control at 100 ppm was 80 to 100%.

And the pest or weed control at 121.5 g/ha [2, 6]?
The pest or weed control at 121.5 g/ha was 80 to 100%.

`COc1ccnc(C(=O)N[C@H]2CCC[C@H](CCOCC3CC3)[C@@H](OCC3CC3)[C@H](C)OC2=O)c1OCOC(=O)C(C)C` [Compound F156] was tested. Which pest or weed control at 100 ppm [1, 3] did it give?
Its pest or weed control at 100 ppm is 80 to 100%.

What about the pest or weed control at 121.5 g/ha [1, 3] of the same compound?
Its pest or weed control at 121.5 g/ha is 80 to 100%.

And the pest or weed control at 100 ppm [1, 4]?
The pest or weed control at 100 ppm was 80 to 100%.

And the pest or weed control at 121.5 g/ha [1, 4]?
Its pest or weed control at 121.5 g/ha is 80 to 100%.

And the pest or weed control at 100 ppm [2, 5]?
Its pest or weed control at 100 ppm is 0 to 80%.

And the pest or weed control at 121.5 g/ha [2, 5]?
Its pest or weed control at 121.5 g/ha is 0 to 80%.

What about the pest or weed control at 100 ppm [2, 6] of the same compound?
The pest or weed control at 100 ppm was 0 to 80%.

What about the pest or weed control at 121.5 g/ha [2, 6] of the same compound?
Its pest or weed control at 121.5 g/ha is 0 to 80%.

What does the source list for `CCOCC(=O)OCOc1c(OC)ccnc1C(=O)N[C@H]1CCC[C@H](CCC(C)C)[C@@H](Oc2ccccc2)[C@H](C)OC1=O` [Compound F158]?
pest or weed control at 100 ppm [1, 3]: 80 to 100%; pest or weed control at 121.5 g/ha [1, 3]: 80 to 100%; pest or weed control at 100 ppm [1, 4]: 80 to 100%; pest or weed control at 121.5 g/ha [1, 4]: 0 to 80%; pest or weed control at 100 ppm [2, 5]: 80 to 100%; pest or weed control at 121.5 g/ha [2, 5]: 80 to 100%; pest or weed control at 100 ppm [2, 6]: 80 to 100%; pest or weed control at 121.5 g/ha [2, 6]: 80 to 100%

With `CCOCC(=O)OCOc1c(OC)ccnc1C(=O)N[C@H]1CCC[C@H](CCC(C)C)[C@@H](OCC(C)C)[C@H](C)OC1=O` [Compound F159] as the compound, how does the pest or weed control at 100 ppm [1, 3] read?
Its pest or weed control at 100 ppm is 80 to 100%.

What about the pest or weed control at 121.5 g/ha [1, 3] of the same compound?
The pest or weed control at 121.5 g/ha was 80 to 100%.

What about the pest or weed control at 100 ppm [1, 4] of the same compound?
The pest or weed control at 100 ppm was 80 to 100%.

And the pest or weed control at 121.5 g/ha [1, 4]?
The pest or weed control at 121.5 g/ha was 0 to 80%.

What about the pest or weed control at 100 ppm [2, 5] of the same compound?
The pest or weed control at 100 ppm was 80 to 100%.

And the pest or weed control at 121.5 g/ha [2, 5]?
The pest or weed control at 121.5 g/ha was 80 to 100%.

What about the pest or weed control at 100 ppm [2, 6] of the same compound?
Its pest or weed control at 100 ppm is 80 to 100%.

What about the pest or weed control at 121.5 g/ha [2, 6] of the same compound?
Its pest or weed control at 121.5 g/ha is 80 to 100%.

For `CCOCC(=O)OCOc1c(OC)ccnc1C(=O)N[C@H]1CCC[C@H](CCC(C)C)[C@@H](OCCCC(F)(F)F)[C@H](C)OC1=O` [Compound F162], which pest or weed control at 100 ppm [1, 3] is on record?
The pest or weed control at 100 ppm was 80 to 100%.

What about the pest or weed control at 121.5 g/ha [1, 3] of the same compound?
The pest or weed control at 121.5 g/ha was 80 to 100%.

What about the pest or weed control at 100 ppm [1, 4] of the same compound?
Its pest or weed control at 100 ppm is 80 to 100%.

And the pest or weed control at 121.5 g/ha [1, 4]?
Its pest or weed control at 121.5 g/ha is 0 to 80%.

And the pest or weed control at 100 ppm [2, 5]?
The pest or weed control at 100 ppm was 80 to 100%.

And the pest or weed control at 121.5 g/ha [2, 5]?
The pest or weed control at 121.5 g/ha was 80 to 100%.

What about the pest or weed control at 100 ppm [2, 6] of the same compound?
Its pest or weed control at 100 ppm is 80 to 100%.

What about the pest or weed control at 121.5 g/ha [2, 6] of the same compound?
The pest or weed control at 121.5 g/ha was 80 to 100%.

Which pest or weed control at 100 ppm [1, 3] does the source give for `CCOCC(=O)OCOc1c(OC)ccnc1C(=O)N[C@H]1CCC[C@H](CCC(C)C)[C@@H](OC)[C@H](C)OC1=O` [Compound F163] here?
Its pest or weed control at 100 ppm is 80 to 100%.

And the pest or weed control at 121.5 g/ha [1, 3]?
Its pest or weed control at 121.5 g/ha is 0 to 80%.

And the pest or weed control at 100 ppm [1, 4]?
The pest or weed control at 100 ppm was 0 to 80%.

What about the pest or weed control at 121.5 g/ha [1, 4] of the same compound?
The pest or weed control at 121.5 g/ha was 0 to 80%.

And the pest or weed control at 100 ppm [2, 5]?
Its pest or weed control at 100 ppm is 80 to 100%.

What about the pest or weed control at 121.5 g/ha [2, 5] of the same compound?
Its pest or weed control at 121.5 g/ha is 80 to 100%.

What about the pest or weed control at 100 ppm [2, 6] of the same compound?
Its pest or weed control at 100 ppm is 80 to 100%.

What about the pest or weed control at 121.5 g/ha [2, 6] of the same compound?
Its pest or weed control at 121.5 g/ha is 0 to 80%.
